In patent US8003688B2, “Method of treating symptoms of common cold, allergic rhinitis and infections relating to the respiratory tract” (ImmuPharm Aps, priority 2000, dated 2011):

Legend:
[1] = tested on: rhinovirus (1A, 15 or 39); assay: Antiviral activity against rhinovirus in WISH cells measured via the MTS-system; type: cell-based; conditions: challenge virus, MTS read-out, Quercetin at levels not toxic to the cells
Procedure: Rhinovirus 1A, rhinovirus 15 and rhinovirus 39 were titrated according to the tetra zolium salt (MTS)-method (Berg et al., 1989; Berg and Owen, 2001a, Hansen et al., 1989). WISH cells were seeded in a micro tray at 3000 cells per well and incubated at 37° C., 5% CO2 overnight; the following morning the medium Was replaced with 10-fold dilutions of either rhinovirus 1A, rhinovirus 15 or rhinovirus 39, respectively, in fresh medium and the trays were incubated 4-5 days at 33° C.; a microscopical examination confirmed that the CytoPathogenic Effect (CPE) was fully developed (CPE equal to 100%). […] To quantitate the CPE in terms of % destruction, MTS (Berg and Owen, 2001a) was added to all cultures and after 3 h incubation at 37° C. (without CO2) the trays were read in a scanner as previuosly described (Berg et al, 1989, Hansen et al., 1989). […]
WISH cells were seeded in wells in a microtray and incubated for 24 h at 34° C., 5% CO2; the medium was replaced with fresh medium comprising 2-fold dilutions of ZnGluconate (diluted 1:10 from a 1% stock dilutions) and incubated further for […] at 33° C., 5% CO2; on the following day challenge virus was added and after 3-5 days at 33° C., 5% , CO2, MTS was added and the microtray was measured in an OD-scanner (Berg et al., 1989; Hansen et al., 1989). […]

[2] = tested on: Rhino Virus (1A, 15 or 39); assay: Potentiation of interferon antiviral activity vs. rhino virus in WISH cells; type: cell-based, rhinovirus; conditions: Troxerutin levels below 2.5 mg/ml added with 2-fold dilutions of interferon
Procedure: 3.000 WISH cells were seeded in a microtray and on the following morning, the medium was replaced with 2-fold dilutions (from a 0-30 units/ml stock solution) of HuIFN-α-2b (Intron A) in fresh medium comprising 2% serum. After incubation overnight, the medium was replaced with fresh medium comprising challenge virus and incubated at 33° C., 5% CO2 for 3-5 days and processed further as described in Example 2.
(§1) An experiment similar to Example 3 was carried out in which various, but constant concentrations of either Troxerutin or Veneruton or other relevant derivatives were added together with the 2-fold dilutions of interferon to WISH cells. A typical example from this series of experiments yielded no potentiation of the interferon system, (<1%) at all at Troxerutin levels below 2.5 mg/ml. Troxerutin concentrations higher than 2.5 mg/ml are toxic to the cells.

[3] = tested on: WISH cells; assay: Toxicity to WISH cells; type: cell-based
Procedure: as §1

| SMILES | protection against rhinovirus [1] [%] | potentiation of the interferon system [2] [%] | concentrations toxic to the cells [3] |
| --- | --- | --- | --- |
| O=C([O-])[C@H](O)[C@@H](O)[C@H](O)[C@H](O)CO.O=C([O-])[C@H](O)[C@@H](O)[C@H](O)[C@H](O)CO.[Zn+2] [ZnGluconate] | < 2 |  |  |
| C[C@@H]1O[C@@H](OC[C@H]2O[C@@H](Oc3c(-c4ccc(OCCO)c(OCCO)c4)oc4cc(OCCO)cc(O)c4c3=O)[C@H](O)[C@@H](O)[C@@H]2O)[C@H](O)[C@H](O)[C@H]1O [Troxerutin, troxerutin] |  | < 1 | higher than 2.5 mg/ml |
